# Entries after “also recorded” stand apart in the source; their conditions may differ.
# Columns and labels:
# Type in all cases: cell-based, human
# Jurkat cells [1] = test: Time course of uptake by FACS (Example 6); conditions: 200 nM
# Experimental: FIG. 6: Time course of uptake for 124, 126, and 132 conjugate compounds. Tests were performed using 200 nM each conjugate and 5, 30 and 60 min incubation with Jurkat cells (immortalized T lymphocytes). Mean fluorescent intensities (MFI). 1,200 cells sorted by FACS. Bars represent mean±SD. Results represents a single experiment done in triplicate.
# Materials and methods: Jurkat cells were diluted on RPMI media (supplemented with 10% FBS+1% penicillin-streptomycin) to 400 cells/μL. 5 μL of […] stock solutions in DMSO from 124, 126 and 132 were diluted with 1245 μL of RPMI media (supplemented with 10% FBS+1% penicillin-streptomycin) to give a 400 nM solution. 250 μL of cell suspensions were then added to each well in a 96 well plate and 250 μL of conjugate solutions (giving a 200 nM final concentration). 250 μL of media only was added to the DMSO control wells. Incubation was carried out for 5, 30 and 60 minutes at 37 °C in triplicate wells for each compound and time point.
# Jurkat cells [2] = test: Flow cytometry time course of uptake (Example 12); conditions: 200 nM
# Experimental: FIG. 12: Time course of uptake for compounds 124, 126, and 132 at 200 nM after 5, 30 or 60 minute incubation with Jurkat cells. Mean fluorescent intensities (MFI). 1,000 cells were sorted by FACS. Bars represent mean±SD. Results represents a single experiment done in triplicate.
# Materials and methods: For this study, 7.7×10^5 Jurkat cells were centrifuged for 5 minutes at 2500 RPM. The supernatant was removed and the cells were diluted in RPMI media (supplemented with 1% FBS+1% penicillin-streptomycin) to 400 cells/μL. Next, 28 μL of 100 μM stock solutions from compound 124, 126, or 132 were diluted with 6972 μL of RPMI media (supplemented with 1% FBS+1% penicillin-streptomycin) to give a 400 nM solution. Following this, 250 μL of conjugate solutions (giving a 200 nM final concentration) and 250 μL of cell suspensions were then added to each well in a 96 well plate. In addition, 250 μL of media only was added to the DMSO control wells. Incubation was carried out for 5, 30 and 60 minutes at 37 °C in triplicate wells for each compound and time point.
# After incubation, cells were centrifuged for 1.5 minutes at 5000 RCF. Supernatant was removed and the cell pellet re-suspended in 200 μL fresh RPMI media, transferred to 96 well-plate and each cell suspension analysed by flow cytometry. Flow cytometry results represent the mean of the fluorescence intensities (in arbitrary units) measured for cells sorted in every sample.
# [3] = system: NZM40 (NRAS Q16H) melanoma cell line; test: Sulforhodamine B (SRB) assay of proliferation (Example 7); conditions: 1 μM, 72 h
# Experimental: FIG. 7: The 124 conjugate was tested for toxicity using 1 μM final concentration and 72 hour incubation with melanoma cell line NZM40 (NRAS Q16H mutant metastatic melanoma). Cell densities were calculated according with sulforhodamine B assay (SRB assay), absorbance at 515 nm. Cells images of DMSO control and 124 were taken at 24, 48 and 72 h through brightfield using conventional microscope. Results represents a single experiment done in a single sample.
# Materials and methods: NZM40 cell line is described above. 1×10^6 NZM40 cells diluted in MEMα media were added to 2×10 cm plates and left to settle for 24 hours. After 24 hour settle period, media was removed from cells and 9900 μL fresh MEMα media added to each plate. 100 μL of DMSO were added to control plate and 100 μL [100 μM 124 in DMSO] were added to treatment plate to afford a final concentration of 1 μM 124. Cells were incubated at 37 °C and 5% 02 for 72 hours and cell images were taken every 24 hours. After 72 hour incubation, sulforhodamine B (SRB) assay was performed to compare final cell density. For this, 2.5 mL of cold 50% (w/v) TCA were added to DMSO (control) and 124 plates. Cells were incubated for 1 hour in TCA at 4 °C. […] The 96 well plate was analysed on plate reader, at wavelength of 515 nm. Results represent the absorbance of cells without dilution, 1:2 dilution, 1:4 dilution and 1:8 dilution.
# [4] = system: NZM11 melanoma cancer cell line; test: FACS uptake of BODIPY FL conjugates, 50 nM, 5 min (Example 1)
# Experimental: FIG. 1. Conjugate compounds coupled to BODIPY FL were tested for uptake using 50 nM each conjugate and 5 minute incubation with HEM (human epidermal melanocytes) and melanoma cell line NZM11 (BRAF V600E mutant metastatic melanoma). Mean fluorescent intensities (MFI). For these tests, n=300-500, mean±SD. Results were from a single experiment done in triplicate. Cells were sorted by FACS.
# Materials and methods: NZM11 is an adherent metastatic melanoma cell derived from a patient with a subcutaneous lesion on their mid back. This human metastatic melanoma is identified with code CBA-1398 from Cell bank Australia. […] Cells of NZM11 diluted in MEMα media and cells of HEMnDP (primary melanocyte cell line) diluted in media 254 were left to settle in 96-wells microplate for 48 hours. 10 μL of 10 mM stock solutions in DMSO from 138 and pantothenic acid/pantothenic acid derivatives coupled to BODIPY were diluted with HBSS to afford 100 nM solution. Then, 100 nM compounds and DMSO solutions were diluted 1:1 with MEMα media for NZM11 and media 254 for HEMnDP to afford 50 nM solutions. After the 48 hour settle time, media was removed from the cells and 200 μL of 50 nM media solutions were poured to each well and incubated for 5 minutes at 37 °C. […] The FACS results output represented the mean of the fluorescence intensities (in arbitrary units) measured for cells sorted in every sample
smiles,measurement,setting,value
CC1=CC(C)=[N+]2C1=Cc1ccc(CCCn3cc(CCNC(=O)/C=C/NC(=O)[C@H](O)C(C)(C)CO)nn3)n1[B-]2(F)F [Compound 124],incubation time to saturation point,Jurkat cells [1],≤ 30 min
same,"uptake, in words",Jurkat cells [1]; 5 to 60 minutes,increased between 5 and 30 minutes; also recorded: selective uptake
same,fluorescent intensity compared to 126 and 132,Jurkat cells [1]; 5 minutes,double
same,fluorescent intensity compared to 126 and 132,Jurkat cells [1]; 30 minutes,six times greater
same,times greater fluorescence than 126 and 132,Jurkat cells [1]; 60 minutes,6 times
same,"uptake, times higher than DMSO control",Jurkat cells [2]; 5 minutes,4 times
same,uptake increase compared to DMSO control,Jurkat cells [2]; 30 minutes,ten
same,uptake increase compared to DMSO control,Jurkat cells [2]; 60 minutes,fourteen
same,"uptake, in words","Jurkat cells [2]; 5, 30, 60 minutes",highest uptake at every timepoint; also recorded: selective uptake
same,effect on proliferation,[3],comparable proliferation to DMSO control cells; also recorded: no significant difference on proliferation; also recorded: little to no effect on proliferation
same,morphology under microscope,[3],do not exhibit significant changes on morphology
same,uptake (fluorescence intensities),[4],"significant uptake; also recorded: highest intensities; also recorded: best targeting activity, with high uptake into cancer cells"

# From patent US20260364186A1, “Chemical Conjugates, Compositions, and Methods of Preparation and Use Thereof” (Transfection Holdings Limited, priority 2022, published 2026)
